Test results as given in article PMC7753147, “High-throughput determination of protein affinities using unmodified peptide libraries in nanomolar scale” (iScience, 2020).

Key:
[1] = test system: native geph; test: µSPOT peptide microarray binding assay with native geph from mouse brain lysate
[2] = test system: gephE; test: µSPOT peptide microarray binding assay with recombinant gephE
[3] = test system: FL-geph; test: µSPOT peptide microarray binding assay with full-length geph
[4] = µSPOT peptide microarray, GlyRβ full positional scan, native geph from mouse brain lysate, intensity normalised to wild-type sequence DLRSNDFSIVGSLPR (=1)
[5] = µSPOT peptide microarray, GlyRβ full positional scan, recombinant gephE, intensity normalised to wild-type sequence DLRSNDFSIVGSLPR (=1)
[6] = µSPOT peptide microarray, GlyRβ full positional scan, intensity normalised to wild-type sequence DLRSNDFSIVGSLPR (=1)
[7] = µSPOT full positional scan of GlyRβ 15-mer DLRSNDFSIVGSLPR, native geph, intensity normalised to wild-type sequence (= 1)
[8] = µSPOT full positional scan of GlyRβ 15-mer DLRSNDFSIVGSLPR, intensity normalised to wild-type sequence (= 1)

| Sequence | Native geph Binding Intensity [norm.] [1, 4] | gephE Binding Intensity [norm.] [2, 5] | Fl-geph Binding Intensity [norm.] [3, 6] | Native geph Binding Intensity [norm.] [1, 7] | gephE Binding Intensity [norm.] [2, 8] | Fl-geph Binding Intensity [norm.] [3, 8] |
| --- | --- | --- | --- | --- | --- | --- |
| DLRSNLFSIVGSLPR [GlyRβ_Full_Positional_Scan_104] | 0.37 norm. | 0.78 norm. | 0.9 norm. | – | – | – |
| DNRSNDFSIVGSLPR [GlyRβ_Full_Positional_Scan_039] | 1.18 norm. | 0.96 norm. | 0.98 norm. | – | – | – |
| DLRSNIFSIVGSLPR [GlyRβ_Full_Positional_Scan_103] | 0.35 norm. | 0.79 norm. | 0.97 norm. | – | – | – |
| DLRSNDFSIVASLPR [GlyRβ_Full_Positional_Scan_201, GlyR β 414-428 variant G424A] | 0.18 norm. | 0.34 norm. | 0.56 norm. | – | – | – |
| DLRSNDFSIVNSLPR [GlyRβ_Full_Positional_Scan_219, GlyR β 414-428 variant G424N] | – | – | – | 0.17 norm. | 0.38 norm. | 0.41 norm. |
| DLRSNDFSIVGSLFR [GlyRβ_Full_Positional_Scan_267] | – | – | – | 0.28 norm. | 0.71 norm. | 0.78 norm. |
| DLRSNDFSDVGSLPR [GlyRβ_Full_Positional_Scan_170, GlyR β 414-428 variant I422D] | 0.17 norm. | 0.29 norm. | 0.29 norm. | – | – | – |
| TLRSNDFSIVGSLPR [GlyRβ_Full_Positional_Scan_016] | 0.79 norm. | 1.16 norm. | 0.85 norm. | – | – | – |
| DLRSNDFSIVGSLPR [GlyRβ_Full_Positional_Scan_099] | 1 norm. | 1 norm. | 1 norm. | – | – | – |
| DLRSNDFSIVGYLPR [GlyRβ_Full_Positional_Scan_229] | – | – | – | 0.31 norm. | 0.53 norm. | 0.59 norm. |
| DLRSNDFWIVGSLPR [GlyRβ_Full_Positional_Scan_148, GlyR β 414-428 variant S421W] | 0.24 norm. | 0.73 norm. | 0.79 norm. | – | – | – |
| DFRSNDFSIVGSLPR [GlyRβ_Full_Positional_Scan_027] | 0.91 norm. | 0.98 norm. | 0.99 norm. | – | – | – |
| DLRSRDFSIVGSLPR [GlyRβ_Full_Positional_Scan_092] | 0.62 norm. | 0.89 norm. | 0.77 norm. | – | – | – |
| DLRSNDFSKVGSLPR [GlyRβ_Full_Positional_Scan_174, GlyR β 414-428 variant I422K] | 0.13 norm. | 0.47 norm. | 0.58 norm. | – | – | – |
| DLPSNDFSIVGSLPR [GlyRβ_Full_Positional_Scan_045] | 1.5 norm. | 0.93 norm. | 1.47 norm. | – | – | – |
| FLRSNDFSIVGSLPR [GlyRβ_Full_Positional_Scan_007] | 0.77 norm. | 0.96 norm. | 1.03 norm. | – | – | – |
| DLRSNDFSIVGSDPR [GlyRβ_Full_Positional_Scan_250] | – | – | – | 0.61 norm. | 0.72 norm. | 1.05 norm. |
| DLRSNDFSIVGSPPR [GlyRβ_Full_Positional_Scan_245] | – | – | – | 0.78 norm. | 0.89 norm. | 0.96 norm. |
| DLRSNDFSIVGELPR [GlyRβ_Full_Positional_Scan_231] | – | – | – | 0.49 norm. | 0.64 norm. | 0.84 norm. |
| DLRSNPFSIVGSLPR [GlyRβ_Full_Positional_Scan_105] | 0.58 norm. | 0.89 norm. | 0.85 norm. | – | – | – |
| DLRSNDFSIVGSLDR [GlyRβ_Full_Positional_Scan_270] | – | – | – | 0.4 norm. | 0.58 norm. | 0.82 norm. |
| DLRLNDFSIVGSLPR [GlyRβ_Full_Positional_Scan_064] | 0.88 norm. | 0.9 norm. | 0.89 norm. | – | – | – |

| Sequence | Native geph Binding Intensity [norm.] [1, 4] | gephE Binding Intensity [norm.] [2, 5] | Fl-geph Binding Intensity [norm.] [3, 6] | Native geph Binding Intensity [norm.] [1, 7] | gephE Binding Intensity [norm.] [2, 8] | Fl-geph Binding Intensity [norm.] [3, 8] |
| --- | --- | --- | --- | --- | --- | --- |
| DLRSNDFSIGGSLPR [GlyRβ_Full_Positional_Scan_182, GlyR β 414-428 variant V423G] | 0.27 norm. | 0.48 norm. | 0.56 norm. | – | – | – |
| DLRSNDFSIVGSGPR [GlyRβ_Full_Positional_Scan_242] | – | – | – | 0.66 norm. | 0.69 norm. | 0.91 norm. |
| DLRSNDFKIVGSLPR [GlyRβ_Full_Positional_Scan_154, GlyR β 414-428 variant S421K] | 0.24 norm. | 0.65 norm. | 0.92 norm. | – | – | – |
| DLRSNDHSIVGSLPR [GlyRβ_Full_Positional_Scan_133, GlyR β 414-428 variant F420H] | 0.44 norm. | 0.57 norm. | 0.61 norm. | – | – | – |
| DLRSADFSIVGSLPR [GlyRβ_Full_Positional_Scan_081] | 0.76 norm. | 0.93 norm. | 0.9 norm. | – | – | – |
| DLRSNDFHIVGSLPR [GlyRβ_Full_Positional_Scan_153, GlyR β 414-428 variant S421H] | 0.48 norm. | 0.8 norm. | 0.95 norm. | – | – | – |
| DLRSNDFSIVGSKPR [GlyRβ_Full_Positional_Scan_254] | – | – | – | 0.24 norm. | 0.59 norm. | 0.68 norm. |
| DLTSNDFSIVGSLPR [GlyRβ_Full_Positional_Scan_056] | 1.38 norm. | 0.96 norm. | 1.18 norm. | – | – | – |
| DLRSNDFRIVGSLPR [GlyRβ_Full_Positional_Scan_152, GlyR β 414-428 variant S421R] | 0.23 norm. | 0.8 norm. | 0.92 norm. | – | – | – |
| DLRYNDFSIVGSLPR [GlyRβ_Full_Positional_Scan_069] | 0.93 norm. | 0.96 norm. | 0.83 norm. | – | – | – |
| DLRSNFFSIVGSLPR [GlyRβ_Full_Positional_Scan_107] | 0.34 norm. | 0.74 norm. | 0.78 norm. | – | – | – |
| RLRSNDFSIVGSLPR [GlyRβ_Full_Positional_Scan_012] | 0.46 norm. | 0.98 norm. | 0.99 norm. | – | – | – |
| ELRSNDFSIVGSLPR [GlyRβ_Full_Positional_Scan_011] | 0.97 norm. | 1.1 norm. | 0.94 norm. | – | – | – |
| DLRSNDFSIVGSLSR [GlyRβ_Full_Positional_Scan_275] | – | – | – | 0.5 norm. | 0.72 norm. | 0.92 norm. |
| DLRSNDFSIVGSLPM [GlyRβ_Full_Positional_Scan_298] | – | – | – | 1.42 norm. | 0.9 norm. | 1.34 norm. |
| DLRSHDFSIVGSLPR [GlyRβ_Full_Positional_Scan_093] | 0.72 norm. | 0.9 norm. | 0.75 norm. | – | – | – |
| DLRSNDFSIVGSHPR [GlyRβ_Full_Positional_Scan_253] | – | – | – | 1.16 norm. | 1.08 norm. | 1.02 norm. |
| DLRSNDFSPVGSLPR [GlyRβ_Full_Positional_Scan_165, GlyR β 414-428 variant I422P] | 0.48 norm. | 0.64 norm. | 0.97 norm. | – | – | – |
| VLRSNDFSIVGSLPR [GlyRβ_Full_Positional_Scan_006] | 0.8 norm. | 1.05 norm. | 1.18 norm. | – | – | – |
| DLRSNDFSINGSLPR [GlyRβ_Full_Positional_Scan_199, GlyR β 414-428 variant V423N] | 0.17 norm. | 0.4 norm. | 0.79 norm. | – | – | – |
| ILRSNDFSIVGSLPR [GlyRβ_Full_Positional_Scan_003] | 0.86 norm. | 1.15 norm. | 1.09 norm. | – | – | – |
